Laboratory results published in patent publication US11479805B2, “Combinatorial single molecule analysis of chromatin” (The General Hospital Corporation, priority 2015, dated 2022).

Columns and labels:
[1] = system: acetylation marks in ESCs; test: Western blot of acetylation marks in ESCs after HDAC or p300 inhibition; format: cell-based, Mouse; conditions: FIG. 12B, corresponds to FIG. 3D
Protocol: FIG. 12A-12B. […] (A) Scatter plot of the observed overlap of the indicated modification pair versus the overlap expected by chance. Corresponds to the data in FIG. 3A, 3B. […] Corresponds to the data in FIG. 3D.
(§1) For HDAC inhibition, 6 million ES cells were plated on a 150 cm plate. 0.5M stock solution of Sodium butyrate (Sigma, 303410) was prepared fresh for each experiment, and diluted in cell media to a final concentration of 1 mM. Following 6 hours of treatment (unless otherwise noted in text), cells were collected and washed with PBS. For p300 inhibition, 4 million ES cells were plated on a 150 cm plate. 25 mM stock solution of C646 (Sigma, SML0002) was prepared and diluted in cell media to a final concentration of 35 μM. Cells were treated for 24 hours, then collected and washed with PBS. For EZH2 inhibition, 2.5 million Karpas422 B-cell non-Hodgkin's lymphoma cells were suspended in 10 ml media. A 10 mM stock solution of the EZH2 inhibitor GSK126 (32) was prepared and diluted 1:1000 in cell media. Cells were harvested 3 days following treatment.

[2] = system: H3K9ac, H3K27ac, H3K4me3 and H3K27me3 on nucleosomes from ESCs; test: Single-molecule decoding of nucleosomes from ESCs treated with HDAC inhibitor or p300 inhibitor; format: cell-based, Mouse; conditions: for change in H3K4me3 or H3K27me3 on nucleosomes: over the course of treatment (sodium butyrate 6 hours, C646 24 hours); for change in acetylation marks (H3K9ac, H3K27ac) on nucleosomes: sodium butyrate 1 mM 6 hours, C646 35 μM 24 hours, vs DMSO; for change in acetylation marks (H3K9ac, H3K27ac) on nucleosomes / preference of acetylation change for H3K4me3-marked nucleosomes (combination H3K27ac and H3K4me3): FIG. 3D; for preference of acetylation change for H3K4me3-marked nucleosomes (combination H3K27ac and H3K4me3): sodium butyrate 6 hours, C646 24 hours
Protocol: Applicants treated ESCs with a pan-HDAC inhibitor (sodium butyrate; 6 hours) or with a p300 HAT inhibitor (C646; 24 hours) and probed extracted nucleosomes for H3K9ac, H3K27ac, H3K4me3 and H3K27me3.
as §1
10 million cells were collected and washed twice with PBS, then resuspended in 500 μl of Lysis buffer (50 mM Tris-HCl pH 7.5, 150 mM NaCl, 1% Triton® X-100, 0.1% sodium deoxycholate, 5 mM CaCl2), supplemented with protease inhibitors (ThermoFisher Scientific, 78425), phosphatase inhibitors (ThermoFisher Scientific, 78420) and HDAC inhibitors (Sodium butyrate, Sigma 303410). Micrococcal Nuclease (ThermoFisher Scientific, 88216) was added to lysis buffer at a concentration of 1 unit per milliliter. The suspension is incubated at 4° C. for 1 hour to lyse the cells, after which MNase is activated by incubating at 37° C. for 20 min and inactivated by addition of EGTA at a final concentration of 20 mM. Next, Applicants centrifuged the lysate for 10 min at max speed and supernatant was transferred to a new tube. 10% of the lysate was used to extract DNA (QIAGEN PCR purification kit, 28104) and run on 2% agarose gel to verify MNase digestion. 100 μl of the lysate were used for ligation of fluorescent, biotinylated adaptors: sample was diluted 1:1 in ligation reaction mixture containing End-It™ DNA End-Repair Kit (Epicentre, ER0720) and Fast-Link™ DNA Ligation Kit (Epicentre, LK0750H). Ligation buffer (100 μl) contained 20 μl ligase buffer, 5 μl of 10 mM dNTPs, 16 μl of 10 Mm ATP, 8 μl End-It, 8 μl fast-link ligase, 1 μl protease inhibitors, 1 μl phosphatase inhibitors, 2 μl of 50 mM sodium butyrate solution, 8 μl annealed adaptors (see sequences below) and H2O. Following at least two hours of ligation at room temperature, 1.5 ml of PBS (supplemented with inhibitors) was added to the sample. Next, the sample was concentrated on an Amicon ultra-4 centrifugal filter unit with ultracel-100 membrane (Millipore, UFC810024) for 15 minutes, and the Pac1 enzymatic reaction (NEB, R0547S) was performed in order to digest adaptor concatemers (adaptors were designed to form Pac1 restriction site in cases of self-ligation). Following Pac1 digestion, nucleosomes were separated on 10-30% glycerol gradients for 18 hours at 35,000 rpm. Fractions were collected and analyzed on 6% DNA retardation gels (ThermoFisher Scientific, EC6365BOX). Gels were imaged with Typhoon trio+imager (Amersham Biosciences), and fractions containing mono-nucleosomes were combined and concentrated on an Amicon Ultra-0.5 Centrifugal Filter Unit with Ultracel-100 membrane (Millipore, UFC510096). For preparation of biotinylated histones (FIG. 2E), histones were purified from ESCs using acid extraction and TCA precipitation as described previously (89). Histones biotinylation was carried out with EZ-Link Sulfo-NHS-Biotinylation Kit (Thermo Scientific, 21425) according to manufacturer's protocol.

[3] = system: H3K27me3 on bivalent nucleosomes of Karpas422 lymphoma cells; test: Single-molecule decoding of H3K27me3 and H3K4me3 on nucleosomes from EZH2 gain-of-function lymphoma cells treated with EZH2 inhibitor; format: cell-based, human; conditions: treatment for 3 days, FIG. 2G
Description: Genomic loci marked by bivalent chromatin in ESCs are frequently deregulated in cancer cells (26). Moreover, the Polycomb and trithorax complexes that catalyze H3K27me3 and H3K4me3 are often mutated in cancer (27, 28). Applicants therefore leveraged the single-molecule platform to investigate these modifications in cancer cells (FIG. 2B, 2C, 10B). First, Applicants examined three cell lines that lack known Polycomb or trithorax mutations: T-cell acute leukemia (DND-41), embryonic kidney (HEK293), and glioblastoma (GSC8). […] Applicants next examined a leukemia line (SKM-1) with a loss-of-function (LOF) mutation of the PRC2 subunit EZH2 (29, 30) (FIG. 2C). Applicants observed a drastic reduction of H3K27me3-marked nucleosomes, consistent with inactivation of this H3K27 methyltransferase. Applicants also examined a lymphoma cell line (Karpas422) with a gain-of-function (GOF) EZH2 mutation that increases its catalytic activity (30). Here Applicants detected H3K27me3 on a very high proportion of nucleosomes (15%). […] Even when controlling for the large fraction of H3K27me3-marked nucleosomes in these cells, the proportion of bivalent nucleosomes is ˜4-fold greater than expected from random overlap. […] This may reflect increased nucleosome turnover and/or preferential demethylation in such regions. […]

| Structure (SMILES) | acetylation marks by Western blot [1] | change in H3K4me3 or H3K27me3 on nucleosomes [2] | change in acetylation marks (H3K9ac, H3K27ac) on nucleosomes [2] | preference of acetylation change for H3K4me3-marked nucleosomes (combination H3K27ac and H3K4me3) [2] | loss of H3K27me3 from bivalent nucleosomes [3] |
| --- | --- | --- | --- | --- | --- |
| CC1=NN(c2ccc(C(=O)O)cc2)C(=O)/C1=C\c1ccc(-c2cc(C)c(C)cc2[N+](=O)[O-])o1 [C646] | decrease in acetylation | Neither drug altered | opposite affect | H3K4me3-marked nucleosomes were more likely to retain their initial state |  |
| CC[C@H](C)n1cc(C)c2c(C(=O)NCc3c(C)cc(C)[nH]c3=O)cc(-c3ccc(N4CCNCC4)nc3)cc21 [GSK126] |  |  |  |  | preferential loss of H3K27me3 from bivalent nucleosomes |
| CCCC(=O)[O-].[Na+] [sodium butyrate, Sodium butyrate] | increase in acetylation marks | Neither drug altered | significantly increased | increased acetylation preferentially affected H3K4me3-marked nucleosomes |  |
